Experiment [1] deals with antigen-specific CD8^+ CTLs. The experiment can be described thus: IFN-γ production by immune cells of regional lymph nodes, Kras G12D peptide (Test Example 10). Format: in vivo, mouse. Particulars: 50 μg as G12D-derived peptide with 10 μg CpG oligodeoxynucleotide, subcutaneously into the ears Day 0, lymph node cells Day 7, cultured 24 hours. The procedure: A fusion peptide (G12D-FL4) was prepared by linking the N-terminus of the peptide consisting of the amino acid sequence of FL4 to the C-terminus of a partial peptide of Kras containing G12D mutation (G12D-derived peptide; LVVVGADGV (SEQ ID NO: 42); the 6th to 14th amino acid sequence from the N-terminal side of Kras containing G12D mutation). Specifically, the amino acid sequence of the fusion peptide is [Partial sequence of Kras containing G12D mutation (LVVVGADGV; SEQ ID NO: 42)]-[VSYKAIR; SEQ ID NO: 1]. The production method of the fusion peptide was the same as that of PspA-FL4 except that a DNA molecule encoding the G12D-derived peptide was used.
50 μL of physiological saline containing 50 μg of G12D-FL4 in terms of the G12D-derived peptide amount and 10 μg of CpG oligodeoxynucleotide (K3 type, product name “K3 Et-Free”, product number “CN-65003” manufactured by GeneDesign Inc.) was administered subcutaneously into the ears of 7-week old C57BL/6 mice on Day 0, regional lymph nodes were collected on Day 7 and immune cells were recovered. […]

For the next experiment, the target named is Neuropilin-1 (Homo sapiens, UniProt O14786). To be noted: reported so far; cited from earlier work.
In experiment [2] the test system is antigen-specific CD8^+ CTLs. The experiment can be described thus: Tetramer assay on regional lymph nodes, CD8+ CTL inducibility (Test Example 8). Format: in vivo, mouse. To be noted: co-administered with CpG oligodeoxynucleotide, 50 μg in terms of SL8 subcutaneously into the ears Day 0, lymph nodes Day 7. The procedure:
A fusion peptide (SL8-FL4) was prepared by linking the N-terminus of the peptide consisting of the amino acid sequence of FL4 to the C-terminus of SL8 (SIINFEKL; SEQ ID NO: 40) which is an MHC class I epitope peptide in chicken ovalbumin (OVA). Specifically, the amino acid sequence of the fusion peptide is [Amino acid sequence of SL8 (SIINFEKL; SEQ ID NO: 40)]-[VSYKAIR; SEQ ID NO: 1]. The production method of the fusion peptide was the same as that of PspA-FL4 except that a DNA molecule encoding SL8 was used. In addition, each of peptide-fusion bodies (SL8-F8 and SL8-FL4Scr) in which the peptide was fused with SL8 was prepared using each of FL8 and the scramble peptide of FL4 (FL4Scr, amino acid sequence: YRSIVKA, SEQ ID NO: 41) in the same manner. […]
(§1) The tetramer assay was carried out as follows. Lymphocytes were recovered from the regional lymph nodes, were stained with fluorescently labeled antibodies against CD44 and CD8 and a fluorescently labeled tetramer recognizing the SL8 peptide presented on H-2K^b, then were analyzed using a flow cytometer.

The subject of another experiment is EG7 cells. The experiment can be described thus: Tumor size in mice transplanted with EG7 cells (Test Example 9). It counts as in vivo, mouse. Particulars: EG7 tumor bearing C57BL/6 mice. The procedure: In this test, whether the regression effect of cancer was observed by SL8-specific CD8^+ CTLs induced by SL8-FL4 was evaluated. In this test, EG7 cells (cancer cells expressing OVA protein in EL4 cells derived from thymoma of C57BL/6 mouse) were used as cancer cells. Specific test methods are as follows.
1 (10^6 EG7 cells were transplanted into the abdomen of 7-week old C57BL/6 mice to prepare tumor bearing mice. 50 μL of physiological saline containing 50 μg of SL8-FL4 in terms of SL8 amount and 50 μg of CpG oligodeoxynucleotide (K3 type, product name “K3 Et-Free”, product number “CN-65003” manufactured by GeneDesign Inc.) was administered subcutaneously into the ears of mice after EG7 cells were transplanted and the tumor diameter reached about 5 mm (about 5 days after transplantation). Thereafter, tumor size was measured over time while breeding the mice. In addition, similar tests were carried out with regard to the case where 50 μL of physiological saline containing 50 μg SL8 and 50 μg of CpG oligodeoxynucleotide was administered, and the case where only physiological saline was administered (control). Meanwhile, in these tests, five mice in each group were used.

Experiment [3] has as its system antigen-specific CD8^+ CTLs. The experiment can be described thus: Tetramer assay after pulmonary administration (Test Example 13). Format: in vivo, mouse. To be noted: pulmonary administration Day 0 and Day 7 with 10 μg CpG oligodeoxynucleotide, Day 14. The protocol:
as §1
40 μL of physiological saline containing 50 μg of SL8-FL4 in terms of SL8 amount and 10 μg of CpG oligodeoxynucleotide (K3 type, product name “K3 Et-Free”, product number “CN-65003” manufactured by GeneDesign Inc.) was pulmonarily administrated to 7-week old C57BL/6 mice on Day 0 and Day 7, regional lymph nodes, lung tissues and the spleen were collected on Day 14 and a tetramer assay was performed in the same manner as Test Example 8. In addition, similar tests were conducted with regard to the case where 40 μL of physiological saline containing 50 μg SL8 alone was pulmonarily administered, the case where 50 μL of physiological saline containing 50 μg SL8 and 10 μg of CpG oligodeoxynucleotide was pulmonarily administered, and the case where only physiological saline was pulmonarily administered (control). Meanwhile, in these tests, five mice in each group were used.

For experiment [4], the system named is antigen-specific CD8^+ CTLs. The experiment in a line: Tetramer assay, pulmonary versus subcutaneous administration (Test Example 14). Format: in vivo, mouse. Particulars: Day 14. The procedure:
as §1
In this study, CD8^+ cytotoxic T cells inducibility by pulmonary administration and that by subcutaneous administration were compared by using SL8-FL4. 40 μL of physiological saline containing 50 μg of SL8-FL4 in terms of SL8 amount and 10 μg of CpG oligodeoxynucleotide (K3 type, product name “K3 Et-Free”, product number “CN-65003” manufactured by GeneDesign Inc.) was pulmonarily or subcutaneously administered to 7-week old C57BL/6 mice on Day 0 and Day 7, regional lymph nodes and the spleen were collected on Day 14 and a tetramer assay was performed in the same manner as Test Example 8. In addition, a test was also carried out in the case where only physiological saline was subcutaneously administered in the same manner (control). Meanwhile, in these tests, five mice in each group were used.

Sequence of Neuropilin-1 (O14786 22-923, species assumed): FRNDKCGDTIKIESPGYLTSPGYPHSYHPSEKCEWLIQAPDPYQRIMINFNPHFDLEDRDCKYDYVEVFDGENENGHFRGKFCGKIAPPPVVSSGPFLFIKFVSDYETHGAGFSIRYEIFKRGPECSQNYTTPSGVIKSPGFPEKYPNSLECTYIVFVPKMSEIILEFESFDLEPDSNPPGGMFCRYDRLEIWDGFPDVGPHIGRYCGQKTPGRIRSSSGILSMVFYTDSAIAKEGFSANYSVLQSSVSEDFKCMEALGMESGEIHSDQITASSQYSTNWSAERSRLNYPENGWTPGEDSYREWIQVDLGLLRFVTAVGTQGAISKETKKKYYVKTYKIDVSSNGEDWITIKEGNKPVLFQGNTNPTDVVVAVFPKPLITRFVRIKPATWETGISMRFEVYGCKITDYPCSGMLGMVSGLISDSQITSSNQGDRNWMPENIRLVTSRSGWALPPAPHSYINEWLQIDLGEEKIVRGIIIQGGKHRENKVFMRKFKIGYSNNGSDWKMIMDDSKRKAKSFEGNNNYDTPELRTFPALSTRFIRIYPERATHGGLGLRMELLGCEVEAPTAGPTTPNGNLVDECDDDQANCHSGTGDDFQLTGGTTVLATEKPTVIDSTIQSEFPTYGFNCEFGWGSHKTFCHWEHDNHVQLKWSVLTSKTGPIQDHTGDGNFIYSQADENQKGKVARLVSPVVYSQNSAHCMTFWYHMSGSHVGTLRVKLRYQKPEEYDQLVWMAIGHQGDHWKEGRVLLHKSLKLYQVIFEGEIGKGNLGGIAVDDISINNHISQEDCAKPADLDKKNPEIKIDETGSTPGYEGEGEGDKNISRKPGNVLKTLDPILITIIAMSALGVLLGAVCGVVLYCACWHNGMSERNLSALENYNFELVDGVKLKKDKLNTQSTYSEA

For the substance “LVVVGADGV [G12D-derived peptide, partial peptide of Kras containing G12D mutation, reference compound]”, the “induction of antigen-specific CD8+ CTLs (IFN-γ production ability)” value in experiment [1] is reported as “no induction”.
As to RPARPAR (positive control peptide), the “binding to Neuropilin-1” value with Neuropilin-1 is given as “bind to Neuropilin-1”.
Regarding “[Amino acid sequence of SL8 (SIINFEKL; SEQ ID NO: 40)]-[VSYKAIR; SEQ ID NO: 1] (SIINFEKLVSYKAIR; SL8 C-terminus; Amino acid sequence of motif sequence) [SL8-FL4, fusion peptide of SL8 and FL4]”, the “induction of antigen-specific CD8+ CTLs (tetramer assay, regional lymph nodes)” value in experiment [2] was “strong induction”. Besides, in the experiment with EG7 cells (50 μg as SL8 with 50 μg CpG oligodeoxynucleotide subcutaneously into the ears, compared with physiological saline), the tumor regression effects entry is on record as “very strong tumor regression effects”. Besides, in the experiment on EG7 cells (co-administered with CpG oligodeoxynucleotide), the “cure of tumor bearing mice” value is reported as “completely cured mice were observed”. Further, in experiment [3], the “induction of antigen-specific CD8+ CTLs in lung tissues” value is “strongly induced”, the “induction of antigen-specific CD8+ CTLs in regional lymph nodes in the lungs” value is recorded as “strongly induced” and the “induction of antigen-specific CD8+ CTLs in the spleen” value is “strongly induced”. Besides, the “induction of antigen-specific CD8+ CTLs in regional lymph nodes in the lungs” value in experiment [4] (pulmonary administration Day 0 and Day 7 with 10 μg CpG oligodeoxynucleotide) is “strong induction”. In addition, in experiment [4] (subcutaneous administration Day 0 and Day 7 with 10 μg CpG oligodeoxynucleotide), the “induction of antigen-specific CD8+ CTLs in the spleen” value is reported as “Strong induction”.
In the case of “[Partial sequence of Kras containing G12D mutation (LVVVGADGV; SEQ ID NO: 42)]-[VSYKAIR; SEQ ID NO: 1] (LVVVGADGVVSYKAIR; G12D-derived peptide; Amino acid sequence of motif sequence) [G12D-FL4, fusion peptide of G12D-derived peptide and FL4]”, the “induction of antigen-specific CD8+ CTLs (IFN-γ production ability)” value in experiment [1] is “very strong induction”.

The record behind these values is patent publication US11186618B2, “Dendritic-cell-targeted peptide, fusion peptide utilizing said peptide, and vaccine utilizing said fusion peptide” (The Research Foundation for Microbial Diseases of Osaka …, priority 2016, dated 2021).
